Several values for one entry are separate records, joined by “and”; a condition that tells them apart may be missing. Identical values can stand only once. Like-named read-outs stand apart in the source and are kept apart here.
How the values were obtained:
[1] = test system: H9c2 cardiomyoblasts; assay: MTT cytotoxicity assay, H9c2 cells; format: cell-based, rat; conditions: for IC50: MTT; for MTT, relative to control (0 = 100): H9c2
Experimental: (§1) For cytotoxicity experiments, cancer cells were seeded at a density of 5,000 (MCF-7), 10,000 (HL-60) or 2,000 cells/well (HCT116 and A549) in 96-well plates (TPP) for 24 h/37°C prior to the addition of examined agents. The non-cancerous cells, 3T3 and H9c2 cells, were cultured for 24 h/37°C in 96-well plates at a density of 10,000 cells/well, the medium was then changed to serum- and pyruvate-free DMEM (Sigma-Aldrich) and incubated with the cells for another 24 h/37°C. The cytotoxic effects of Bp4eT and its metabolites were studied at different concentrations after a 72 h/37°C incubation. In order to aid the dissolution of the lipophilic ligands, 0.1% dimethyl sulfoxide (v/v) (DMSO; Sigma-Aldrich) was present in the culture medium of all groups. At this concentration, DMSO had no effect on cellular proliferation or viability.
(§2) The viability of cells were determined using an MTT assay (Sigma-Aldrich) according to previously established methods. The optical density of soluble MTT was measured at λ = 570 nm, subtracting the λ = 690 nm background using a Tecan Infinite 200M plate reader (Tecan Group, Männedorf, Switzerland). The viability or proliferation of experimental groups was expressed as a percentage of the untreated controls (100%).
(§3) SigmaStat for Windows 3.5 (Systat Software, San Jose, CA, USA) statistical software package was utilized to analyze results. The data are expressed as the mean ± SD of a given number of experiments. Statistical significance was determined using a one-way ANOVA with a Bonferroni post-hoc test or Student’s t-test. The results were considered to be statistically significant when p < 0.05. The IC50 values were calculated using CalcuSyn 2.0 software (Biosoft, Cambridge, UK). Cell cycle analysis was evaluated using MultiCycle AV Software (Phoenix Flow Systems, San Diego, CA, USA).

[2] = test system: MCF-7 human breast adenocarcinoma cells; assay: MTT cytotoxicity assay, MCF-7 cells; format: cell-based; conditions: for IC50: MTT, read-out: IC50
Experimental: as §1, §2, §3

## CCNC(=O)NN=C(c1ccccc1)c1ccccn1 [Z-Bp4eS, 2-benzoylpyridine 4-ethylsemicarbazone]
[1]; H9c2, 72 h/37°C, mean ± SD, n ≥ 4, read-out: IC50
  IC50: 343 ± 95.1 µM
[1]; 10 000 b/j, 1 μM, průměr (mean), sheet Z-Bp4eS
  MTT, relative to control (0 = 100): 99.81
[1]; 10 000 b/j, 1 μM, single experiment (date), sheet Z-Bp4eS
  MTT, relative to control (0 = 100): 102.371 and 103.08 and 95.5416 and 98.2281
[1]; 10 000 b/j, 3 μM, průměr (mean), sheet Z-Bp4eS
  MTT, relative to control (0 = 100): 93.78
[1]; 10 000 b/j, 3 μM, single experiment (date), sheet Z-Bp4eS
  MTT, relative to control (0 = 100): 92.602 and 95.2542 and 92.4159 and 94.8358
[1]; 10 000 b/j, 10 μM, průměr (mean), sheet Z-Bp4eS
  MTT, relative to control (0 = 100): 89.06
[1]; 10 000 b/j, 10 μM, single experiment (date), sheet Z-Bp4eS
  MTT, relative to control (0 = 100): 88.6483 and 89.659 and 90.3674 and 87.5524
[1]; 10 000 b/j, 30 μM, průměr (mean), sheet Z-Bp4eS
  MTT, relative to control (0 = 100): 76.27
[1]; 10 000 b/j, 30 μM, single experiment (date), sheet Z-Bp4eS
  MTT, relative to control (0 = 100): 77.9281 and 80.0605 and 74.6409 and 72.4521
[1]; 10 000 b/j, 100 μM, průměr (mean), sheet Z-Bp4eS
  MTT, relative to control (0 = 100): 56.31
[1]; 10 000 b/j, 100 μM, single experiment (date), sheet Z-Bp4eS
  MTT, relative to control (0 = 100): 59.4912 and 57.2744 and 57.5228 and 50.9483
[1]; 10 000 b/j, 300 μM, průměr (mean), sheet Z-Bp4eS
  MTT, relative to control (0 = 100): 53.60
[1]; 10 000 b/j, 300 μM, single experiment (date), sheet Z-Bp4eS
  MTT, relative to control (0 = 100): 52.3885 and 58.4831 and 53.7777 and 49.7549
[1]; 10 000 b/j, 1000 μM, průměr (mean), sheet Z-Bp4eS
  MTT, relative to control (0 = 100): 39.75
[1]; 10 000 b/j, 1000 μM, single experiment (date), sheet Z-Bp4eS
  MTT, relative to control (0 = 100): 41.1185 and 45.5292 and 39.9014 and 32.4603
[1]; Rattus norvegicus, H9c2, H9c2, 10 000 b/j, průměr (mean), sheet Z-Bp4eS, read-out: IC50 měřené
  IC50: 343 µM
[2]; 3T3/MCF-7
  Therapeutic index, IC50 non-cancerous cells / IC50 neoplastic cells: >5.1
[2]; H9c2/MCF-7
  Therapeutic index, IC50 non-cancerous cells / IC50 neoplastic cells: 1.7
[2]; MCF-7, 72 h/37°C, mean ± SD, n ≥ 4
  IC50: 198 ± 20.9 µM
[2]; MCF-7, 5 000 b/j, průměr (mean)
  IC50: 198 µM
[2]; MCF-7, 5 000 b/j, single experiment (by date)
  IC50: 185 µM and 224 µM and 177 µM and 205 µM
[2]; MCF-7, 5 000 b/j, koncentrace 1 μM, průměr (mean)
  MTT, value relative to 0 μM = 100: 93.54
[2]; MCF-7, 5 000 b/j, koncentrace 1 μM, single experiment (by date)
  MTT, value relative to 0 μM = 100: 102.478 and 93.2821 and 90.3792 and 88.0305
[2]; MCF-7, 5 000 b/j, koncentrace 3 μM, průměr (mean)
  MTT, value relative to 0 μM = 100: 89.98
[2]; MCF-7, 5 000 b/j, koncentrace 3 μM, single experiment (by date)
  MTT, value relative to 0 μM = 100: 104.08 and 86.4853 and 85.3702 and 83.9685
[2]; MCF-7, 5 000 b/j, koncentrace 10 μM, průměr (mean)
  MTT, value relative to 0 μM = 100: 90.26
[2]; MCF-7, 5 000 b/j, koncentrace 10 μM, single experiment (by date)
  MTT, value relative to 0 μM = 100: 95.2561 and 95.1363 and 88.6166 and 84.693 and 87.5852
[2]; MCF-7, 5 000 b/j, koncentrace 30 μM, průměr (mean)
  MTT, value relative to 0 μM = 100: 93.09
[2]; MCF-7, 5 000 b/j, koncentrace 30 μM, single experiment (by date)
  MTT, value relative to 0 μM = 100: 93.8264 and 93.1628 and 90.8333 and 94.5401
[2]; MCF-7, 5 000 b/j, koncentrace 100 μM, průměr (mean)
  MTT, value relative to 0 μM = 100: 68.42
[2]; MCF-7, 5 000 b/j, koncentrace 100 μM, single experiment (by date)
  MTT, value relative to 0 μM = 100: 56.52 and 67.9071 and 73.7709 and 75.4946
[2]; MCF-7, 5 000 b/j, koncentrace 300 μM, průměr (mean)
  MTT, value relative to 0 μM = 100: 29.85
[2]; MCF-7, 5 000 b/j, koncentrace 300 μM, single experiment (by date)
  MTT, value relative to 0 μM = 100: 23.6355 and 38.2595 and 25.5292 and 31.9956
[2]; MCF-7, 5 000 b/j, koncentrace 1000 μM, průměr (mean)
  MTT, value relative to 0 μM = 100: 13.67
[2]; MCF-7, 5 000 b/j, koncentrace 1000 μM, single experiment (by date)
  MTT, value relative to 0 μM = 100: 18.442 and 16.1441 and 10.4709 and 9.64

Source: paper PMC4604124, “In Vitro Characterization of the Pharmacological Properties of the Anti-Cancer Chelator, Bp4eT, and Its Phase I Metabolites” (PLoS ONE, 2015)
